Measurements from US20210393614A1, “QUINONE REDUCTASE 2 INHIBITORS FOR USE AS NEUROPROTECTIVE AGENTS” (DUKE UNIVERSITY, priority 2018, published 2021).

Key:
QR2 = target: T1, QR2 (Homo sapiens, UniProt P16083); assay: Inhibition of QR2 (IC50, Table 1); type: biochemical; conditions: for LiPE (pIC50-clogP): lipophilic efficiency, QR2 pIC50 minus clog P; for IC50: inhibitors of QR2, mean +/− SD
T1 sequence (P16083 1-231): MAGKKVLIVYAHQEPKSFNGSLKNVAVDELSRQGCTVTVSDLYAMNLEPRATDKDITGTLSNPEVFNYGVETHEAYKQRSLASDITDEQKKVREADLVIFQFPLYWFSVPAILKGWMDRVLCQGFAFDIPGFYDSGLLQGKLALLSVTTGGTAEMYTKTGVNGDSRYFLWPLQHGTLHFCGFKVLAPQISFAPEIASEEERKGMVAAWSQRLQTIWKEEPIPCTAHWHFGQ

[1] = test system: intracranial hemorrhagic injury; assay: Mouse model of intracranial hemorrhagic injury; type: in vivo; conditions: single 25 mg/kg i.p. dose
[2] = test system: TBI model of diffuse closed head injury; assay: Murine TBI model of diffuse closed head injury; type: in vivo; conditions: single 25 mg/kg administration, n=12/gp
Description: The neuroprotective potential of QR2 inhibition was investigated in a murine TBI model of diffuse closed head injury (Laskowitz et al., “Neuroprotective pentapeptide CN-105 is associated with reduced sterile inflammation and improved functional outcomes in a traumatic brain injury murine model.” Sci. Rep. 2017 Apr. 21; 7:46461).

[3] = in vivo
[4] = test system: CPB/DHCA perioperative cerebral injury; assay: Rat model of cardiopulmonary bypass (CPB)/deep hypothermic circulatory arrest (DHCA); type: in vivo, Sprague-Dawley rats; conditions: for apoptotic and necrotic neurons in cortex and hippocampus: 25 mg/kg, 48 hours after DHCA, FIG. 6, FIG. 7; for decrease in post-operative blood brain barrier permeability (gadolinium chelate, MRI): compared to respective control groups, p<0.05, preliminary results
Experimental: Perioperative cerebral injury (PCI) following major cardiovascular surgery using cardiopulmonary bypass (CPB) and deep hypothermic circulatory arrest (DHCA) remains a significant cause of adverse cerebral outcome. […] Cannulas were placed in the tail artery and the right external jugular vein. Animals were then cooled on CPB for 30 minutes, and DHCA was instituted at a pericranial temperature of 16-18° C. […] MRI was performed on day-1 post-operatively, neurological assessments on day 1 and 2 post-operatively, and animals then sacrificed after day 2.

[5] = test system: vascular dementia (BCAS mice); assay: Murine model of vascular dementia (BCAS); type: in vivo; conditions: for Morris water maze escape latency: versus vehicle, n=10
Experimental: Vascular dementia is caused by chronic cerebral hypoperfusion and is characterized clinically by white matter lesions on MRI and a decline in executive function. […] Physiological, cellular, and functional outcomes were determined using a combination of quantitative immunochemistry, MRI, and behavioral tasks including Morris water maze and rotorod.

[6] = test system: transient middle cerebral artery (MCA) occlusion; assay: Mouse model of transient middle cerebral artery (MCA) occlusion; type: in vivo
[7] = test system: permanent MCA occlusion model; conditions: cited from earlier work
[8] = during therapeutic dosing; cited from earlier work

SMILES | LiPE (pIC50-clogP) (QR2) | apoptotic and necrotic neurons in cortex and hippocampus [4] | decrease in post-operative blood brain barrier permeability (gadolinium chelate, MRI) [4] [%] | Morris water maze escape latency [5] | IC50 (QR2) [µM] | further results
CNc1ccnc2cc(Cl)ccc12 [7C-4MAQ, 7-chloro-N-methylquinolin-4-amine] | 4.67 | fewer apoptotic and necrotic neurons | 3 | decreased escape latencies compared to vehicle controls | – | improvement in motor function (rotorod assessment) [1]: 21%; improvement in Morris water maze performance ([2]; 1 month following injury): 62%; improvement over vehicle in rotorod latency [2]: 20%; LD50 relative to the 25 mg/kg dose [3]: more than 20 times; neurological scores at post-op day 1 and 2 ([4]; 25 mg/kg 2 hours before CPB/DHCA, FIG. 8): significantly improved neurological scores; Morris water maze probe trial, time in target quadrant ([5]; p<0.05 group effect): significantly more time in the target quadrant; reductions in cortical stroke volumes relative to those after CQ ([6]; equivalent single acute phase dose 25 mg/kg, FIG. 3C): ~2 ×
Oc1ccc(CCNc2ccnc3cc(Cl)ccc23)cc1 [Example Compound A, 4-{2-[(7-chloroquinolin-4-yl)amino]ethyl}phenol] | 1.65 | – | – | – | 2.7 | –
COc1cc(NCc2ccccn2)c2ncccc2c1 [Example Compound B, 6-methoxy-N-(pyridin-2-ylmethyl)quinolin-8-amine] | 4.30 | – | – | – | – | –
COc1cc(NC(C)c2ccco2)c2ncccc2c1 (stereo not shown) [Example Compound C, N-[1-(furan-2-yl)ethyl]-6-methoxyquinolin-8-amine] | 3.42 | – | – | – | 0.85 | –
Clc1ccc2c(Nc3ccccn3)ccnc2c1 [Example Compound D, 7-chloro-N-(pyridin-2-yl)quinolin-4-amine] | 2.71 | – | – | – | 0.55 | –
CCN(CC)CCCC(C)Nc1ccnc2cc(Cl)ccc12 (stereo not shown) [chloroquine] | – | fewer apoptotic and necrotic neurons | 3 | performance profile similar to their N-MCQ counterparts | – | reduction of stroke volumes [7]: 60%; plasma concentration [8]: < 1000 nM; stroke evolution between 4 and 24 hours by DW-MRI ([6]; single i.p. 25 mg/kg 90 minutes after ischemia onset): reduction in stroke evolution; reduction in overall stroke volume ([6]; single i.p. 25 mg/kg 90 minutes after ischemia onset, post-mortem histology at 72 hours): 55%
